Consider 86 compounds from PubChem BioAssay AID1508591.

The structures appear in SMILES notation.

For the data set the following is noted: rat; liver microsomes; pH 7.4; 15.0 min; 1.0 µM.
As usually defined, the half-life is the time in which the quantity being followed falls by half. The low end stands for rapid decline, the high end for slow decline. The compound `O=C(NCCCCc1ccccc1)C1CCN(c2nc(-c3ccc(Br)cc3)cs2)CC1` gave a half-life of 4.1 min.

`NC(=O)C1CCN(c2nc(-c3ccc([N+](=O)[O-])cc3)cs2)CC1` returned a half-life of 5.53 min. The value for `Cc1ccc(-c2cc(C(=O)NC3CCCCC3)c3ccccc3n2)cc1` was 9.42 min. With `CN1C[C@@H]2C[C@H]1CN2c1cc2c(cc1F)c(=O)c(C(=O)O)cn2C1CC1`, the half-life is greater than 30 min. `CCc1ccc(NC(=O)c2[nH]c(C)c(C(C)=O)c2C)cc1S(=O)(=O)Nc1ccc(C#N)cc1`: the half-life came to 14.7 min. On to `COc1cccc(CNc2ccc(S(=O)(=O)Nc3nc4ccccc4[nH]3)cc2)c1O`, for which the half-life is greater than 30 min. As to `Cc1ccc(S(=O)(=O)Nc2cncc(C(=O)Nc3nc(-c4ccccc4)cs3)c2)cc1`, the half-life came to 19 min. `O=c1[nH]c(C2CCN(S(=O)(=O)c3ccc4c(c3)OCCO4)CC2)nc2c1nnn2Cc1c(F)cccc1Cl` showed a half-life of 1.4 min. For `CC1(C)CC2CC(C)(CN2S(=O)(=O)c2ccc(C(=O)Nc3ccc(Cl)cc3)cc2)C1` (stereo unspecified), the half-life came to 2.3 min. `COC(=O)C1=C(C)NC(C)=C(C(=O)OCCCN2CCC(c3ccccc3)(c3ccccc3)CC2)C1c1cccc([N+](=O)[O-])c1` (stereo unspecified) returned a half-life of 5.13 min. For the compound `COc1cc(Nc2nc(-c3ccncc3)nc3ccccc23)ccc1NS(C)(=O)=O`, the half-life was 22 min. The value for `CC(CCc1ccc(O)cc1)NCc1ccc(Cl)cc1Cl` (stereo unspecified) was 1.7 min; that for `Cc1ccc2c(c1)/C(=C\c1cc(Cl)c(O)c(Cl)c1)C(=O)N2` was 22 min. The value for `COC(=O)[C@]12CCC(C)(C)C[C@@H]1[C@@H]1C(=O)C=C3[C@@]4(C)C=C(C#N)C(=O)C(C)(C)[C@@H]4CC[C@@]3(C)[C@]1(C)CC2` was 5.97 min; that for `Nc1ncnc2c1C(=O)N(c1ccc(C3CCC(CC(=O)O)CC3)cc1)CCO2` (stereo unspecified) was greater than 30 min. The value for `Cc1ccc(S(=O)(=O)Nc2ccc(C(=O)Nc3ncc(-c4ccccc4)s3)cc2)cc1` was 11 min; that for `Fc1ccc(Nc2cc(-c3ccccc3)nc(-c3ccncc3)n2)cc1F` was greater than 30 min. `Cc1ccc(S(=O)(=O)Nc2cnccc2C(=O)Nc2nc(-c3ccc4c(c3)CCCC4)cs2)cc1` showed a half-life of 2.3 min. `CCS(=O)(=O)c1ncc(N(Cc2ccc(F)cc2)Cc2ccco2)c(C(=O)Nc2cc(C)ccc2C)n1`: the half-life is 3.51 min. In turn, `O=C(Nc1ccc(Cl)cc1Cl)c1cnc2ccccc2n1` returned a half-life of 3 min.

In turn, `CCC(=O)NC(c1ccco1)c1cc(Cl)c2cccnc2c1O` (stereo unspecified) registered a half-life of 3.3 min. The compound `COc1ccc(C(=O)c2sc(Nc3cccc(Cl)c3)nc2N)cc1` had a half-life of 5.07 min. In turn, `O=C1c2ccccc2C2=Nc3ccccc3SC(c3ccccc3F)C12` (stereo unspecified) yielded a half-life of 3.11 min. Take `CC(C)(C)c1cc(NC(=O)Nc2ccc(-c3cn4c(n3)sc3cc(OCCN5CCOCC5)ccc34)cc2)no1`: the half-life is greater than 30 min.

`CN1C(=O)c2ccccc2[S@](=O)c2ccc(C(=O)NCCN3CCCC3)cc21` registered a half-life greater than 30 min. Take `NC1CCC(Nc2nc(Nc3ccc(C(=O)N4CCCCC4)cc3)c3ncn(-c4cccc(F)c4)c3n2)CC1` (stereo unspecified): the half-life stood at 23 min. Compound `O=C1NC(=S)NC(=O)C1=Cc1cccn1-c1ccc(O)cc1` registered a half-life of 10.5 min. Consider `Cn1nnnc1Sc1ncnc2sc(-c3ccccc3)cc12`, for which the half-life stood at 12.3 min. The value for `COc1ccc(NC(=O)c2cccnc2C)cc1S(=O)(=O)Nc1ccc(Br)cc1` was 11 min; that for `CC(=O)c1c(C)[nH]c(C(=O)Nc2cccc(S(=O)(=O)Nc3ccc(Br)c(F)c3)c2)c1C` was 17 min. In turn, `CN(Cc1ccccc1)C(=O)c1ccc(S(=O)(=O)Nc2ccccc2)cc1` gave a half-life of 1.64 min. Compound `O=C(Nc1nc(-c2ccccc2)cs1)c1ccncc1NS(=O)(=O)c1cccc2cccnc12` displayed a half-life of 7.4 min. `O=C(Nc1nc(-c2ccccc2)cs1)c1ccncc1NS(=O)(=O)c1ccc(Cl)cc1` registered a half-life of 18.2 min. The value for `CCOc1ccc(CCNC(=O)c2cc3c(s2)CCC3)cc1OCC` was 1.6 min. For the compound `O=C(Nc1nc(-c2ccccc2)cs1)c1ccncc1NS(=O)(=O)c1ccc(F)cc1F`, the half-life is 6.5 min.

Consider `NS(=O)(=O)c1ccc(Cc2c(-c3cccc(-c4ccccc4)c3)nn(-c3nc(C(=O)O)cs3)c2CC2CC2)cc1`, for which the half-life is greater than 30 min.

In the case of `CNC1CCC(N(Cc2ccc(OC)c(-c3ccc(C#N)cc3)c2)C(=O)c2sc3ccccc3c2Cl)CC1` (stereo unspecified), the half-life is greater than 30 min. The value for `CCCC1=Nc2cc(C(=O)NC3CCCC3)ccc2Sc2ccc(C)cc21` was 1.41 min; that for `O=S(=O)(Nc1ccc(-c2ccccc2)cc1)c1ccc(NCc2ccc(Br)cc2O)cc1` was 21 min. Turning to `CNc1nc(-c2ccc3c(N)n[nH]c3c2)cc(N2C[C@@H](C(=O)NC3CCCCC3)CC[C@@H]2C)n1`, the half-life came to 1.85 min. As to `COc1ccc(-c2csc(NC(=O)c3ccncc3NS(=O)(=O)c3ccc(C)cc3)n2)cc1`, the half-life came out at 4.7 min. Turning to `OC[C@H]1O[C@H](O[C@H]2O[C@H](CO)[C@@H](O)[C@H](O)[C@H]2O)[C@H](O)[C@@H](O)[C@@H]1O`, the half-life is greater than 30 min. With `CNC(=O)Cn1cc(-c2ccc3c(c2)C(F)CC32NC(=O)N(CC(=O)N(Cc3ccc(F)cc3)[C@@H](C)C(F)(F)F)C2=O)cn1` (stereo partly specified), the half-life was 18.9 min. `N#C/C(=C\c1ccc(-c2ccc(C(=O)O)cc2)o1)c1nc2ccccc2[nH]1` gave a half-life greater than 30 min. `Cc1ccc(C(=O)N2CCc3cc(-c4nc(NC(=O)Cc5ccc6c(c5)OCO6)sc4C)ccc32)cc1` registered a half-life of 6 min. Compound `C[C@@H]1Cc2c([nH]c3cc(Cl)c(F)cc23)[C@]2(N1)C(=O)Nc1ccc(Cl)cc12` showed a half-life greater than 30 min. In turn, `COc1cccc(-c2nc(-c3c(C)noc3C)cc3[nH]c(C)cc23)c1OC` displayed a half-life of 10.2 min. As for `Cc1ccc(S(=O)(=O)Nc2cc(C(=O)Nc3nc(-c4ccccc4)cs3)ccn2)cc1`, the half-life was greater than 30 min.

Turning to `CCN1C(=O)c2ccccc2S(=O)c2ccc(NC(=O)Cc3ccc(OC)cc3)cc21` (stereo unspecified), the half-life was 6.1 min. The value for `COc1cccc(NC(=S)N2CCN(c3cccc(C(F)(F)F)c3)CC2)n1` was 17.6 min; that for `Cc1cn(CCN2CCN(c3ccccc3-c3cc(C#N)cc(C(=O)NCCCN4CCCC4)c3)CC2)c2ccccc12` was greater than 30 min. As to `COc1cc(-c2nc(Nc3ccc(F)c(F)c3)c3ccccc3n2)cc(OC)n1`, the half-life was greater than 30 min. As to `CC[C@@]1(O)C(=O)OCc2c1cc1n(c2=O)Cc2c-1nc1ccccc1c2CCNC(C)C`, the half-life is greater than 30 min.

Take `Cc1ccc(-n2ncc(C(=O)NCCN3CCC(Cc4ccccc4)CC3)c2C2CCN(C(=O)OC(C)(C)C)CC2)cc1`: the half-life came out at 9.29 min. For the compound `Cc1ccc(S(=O)(=O)Nc2cnccc2C(=O)Nc2nc(-c3ccc(C)c(C)c3)cs2)cc1`, the half-life turned out to be 2.1 min. For the compound `Cn1ccc2c(C(=O)NCC3CCC(=O)N3)nc(-c3ccccc3C#N)cc21` (stereo unspecified), the half-life amounted to 21.9 min. As to `CC(C)(C)n1cnc2cc(C(=O)N3CCCCC3)ccc21`, the half-life is 9.7 min. Compound `CCCC1=Nc2cc(C(=O)NC3CCCCC3)ccc2Sc2ccc(C)cc21` showed a half-life of 1.48 min. In turn, `FC(F)(F)c1cccc(Sc2nc(-c3ccccc3)nnc2C(F)(F)F)c1` showed a half-life of 11 min. The value for `CCCCN1CCC[C@H]1CNC(=O)c1cc(C#N)c2ccccc2c1OC` was 4.23 min; that for `Cc1cccc(OCC(=O)Nc2ccc3nc(Nc4cccc(Cl)c4)cc(C)c3c2)c1` was greater than 30 min; that for `CCOc1ccc(CCNC(=O)c2cc3cccnc3n2Cc2cccc(C)n2)cc1OCC` was 1.7 min.

As for `COc1ccc(NC(=O)c2[nH]c(C)c(C(C)=O)c2C)cc1S(=O)(=O)N(C)C`, the half-life was greater than 30 min. Turning to `CCc1ccc(C(=O)Nc2cc(CN3CCN(C)CC3)cc(C(F)(F)F)c2)cc1C#Cc1cnc2ccnn2c1`, the half-life was greater than 30 min.

For `O=C(c1ccc(-c2ncc3cnc(-c4ccccc4)cn23)cc1)N1CCS(=O)(=O)CC1`, the half-life is greater than 30 min. In turn, `Cc1ccc(-c2cc(C(=O)Nc3ccccn3)c3ccccc3n2)cc1` displayed a half-life of 23.8 min. Regarding `O=C(Cc1ccc(-c2csc(Nc3ccc(F)cc3)n2)s1)N1CCOCC1`, the half-life was greater than 30 min. The compound `COc1ccccc1CNc1ccc(S(=O)(=O)Nc2nccs2)cc1` gave a half-life of 2.8 min. In the case of `CCN(C(=O)C(NS(=O)(=O)c1ccc(Br)s1)c1ccccc1)c1ccc(C)c(C)c1` (stereo unspecified), the half-life stood at 0.99 min. Take `Cc1ccc(CNc2ccccc2C(=O)Nc2nc(-c3ccccc3)cs2)cc1`: the half-life was greater than 30 min.

For the compound `COc1ccccc1N1CCN(CCN(C(=O)c2ccc(F)cc2)c2ccccn2)CC1`, the half-life worked out at 2.02 min.

Consider `Cc1cc(Nc2nc(-c3ccncc3)nc3ccccc23)n[nH]1`, for which the half-life was found to be 7.3 min. The value for `COc1cccc(C(=O)Nc2ccc3oc(-c4ccc5ccccc5c4)nc3c2)c1` was 27.9 min; that for `O=C(Nc1ncc(Cc2ccccc2)s1)c1ccc(-c2cccc([N+](=O)[O-])c2)o1` was greater than 30 min. `Cc1cccc(S(=O)(=O)c2cn(Cc3ccccc3)c3cc(N4CCCC(C)C4)c(F)cc3c2=O)c1` (stereo unspecified): the half-life was 2.01 min. In turn, `FC(F)(F)Oc1cccc(Nc2nc(-c3ccncc3)nc3ccccc23)c1` registered a half-life of 19 min. In turn, `CCOc1ccc(CCNC(=O)c2cc3sccc3n2Cc2ccc(-n3cncn3)cc2)cc1OCC` had a half-life of 4.3 min. The value for `Cc1ccc(S(=O)(=O)NCc2ccccc2)cc1` was 1 min; that for `CC(C)(O)CCc1ccc(OCc2cc(-c3cccc(OC(F)F)c3)c3ncccc3c2)cc1` was greater than 30 min; that for `Cc1ccccc1NC(=O)Nc1cccs1` was greater than 30 min. As to `Nc1nc(Nc2ccc(S(N)(=O)=O)cc2)nn1C(=O)c1c(F)cccc1F`, the half-life was greater than 30 min. Compound `COCCNC(=O)c1ccc(-c2ncc3cnc(-c4cccc(F)c4)cn23)cc1` registered a half-life greater than 30 min.

In turn, `COc1c(C)cc(NC(=O)c2nn(Cc3ccc(F)cc3)c3c2CN(C(=O)c2ccc[nH]2)C[C@]3(C)C(N)=O)cc1C` displayed a half-life greater than 30 min. For the compound `CN(C)C(=O)c1ccc(-c2cc[nH]c(=O)c2N)cc1`, the half-life was greater than 30 min.

Turning to `O=C(c1ccc2ncccc2c1)N1CCc2c(nc3cc[nH]n3c2=O)C1`, the half-life is greater than 30 min.

For `Cc1ccc(S(=O)(=O)Nc2ccc(C(=O)Nc3nc(-c4ccccc4)cs3)cc2Cl)cc1`, the half-life was determined as 4 min.
